Reference: patent US8859527B2 (priority 2009, dated 2014)
Where two headings read alike, the source gives them in different places.

Key:
[1] = tested on: C-6 (rat neurogliocytoma cell line); assay: in vitro growth inhibition of tumor cells, C-6; format: cell-based; conditions: C6, 48 hours
Description: (§1) The tumor strains are A-549 (human lung adenocarcinoma cell line), BGC-823 (human gastric cancer cell line), C-6 (rat neurogliocytoma cell line), Hep G2 (human hepatic cancer cell line), HL-60 (human leukemia cell line), K-562 (human erythremia cell line) and Hela (human cervical cancer cell line). […] The drug was prepared as a stock solution of 10^−2 M by using physiological saline and diluted into the test solution in a gradient composed of five concentrations: C1 5×10^−5 M, C2 10^−5 M, C3 10^−6 M, C4 10^−7 M and C5 10^−8 M.
(§2) Experimental method: different tumor cells in exponential growth phase are inoculated in 96-well plates in a certain amount and the selected samples are added after the cells are cultured for 24 hours (suspension cells can be directly added after being inoculated), after the cells are incubated at 37° C. and 5% CO2 for another 48 hours, […] is added for further incubation for another 4 hours, and finally the samples are examined on a microplate reader after dissolving with DMSO.

[2] = tested on: HL-60 (human leukemia cell line); assay: in vitro growth inhibition of tumor cells, HL-60; format: cell-based; conditions: 48 hours
Description: as §1, §2

[3] = tested on: A-549 (human lung adenocarcinoma cell line); assay: in vitro growth inhibition of tumor cells, A-549; format: cell-based; conditions: A549, 48 hours
Description: as §1, §2

[4] = tested on: Hep G2 (human hepatic cancer cell line); assay: in vitro growth inhibition of tumor cells, Hep G2; format: cell-based; conditions: HepG2, 48 hours
Description: as §1, §2

[5] = tested on: K-562 (human erythremia cell line); assay: in vitro growth inhibition of tumor cells, K-562; format: cell-based; conditions: K562, 48 hours
Description: as §1, §2

[6] = tested on: human non-small cell lung cancer H460 xenograft tumor; conditions: mouse, in vivo, iv, 20 mg/kg
Description: (§6) The test article: the inclusion complex of DPT and SBE-β-CD, the content is 5.05%. Preparation Method: it is dissolved in a proper amount of saline after gentle shaking and the concentration is 0.4 mg/ml (which is the test solution for the 8 mg/kg group); other concentrations are prepared by diluting the stock solution of 0.4 mg/ml to the required concentration with physiological saline.
(§7) The control article: Etoposide injection produced by Qilu Pharmaceutical Co., Ltd. the batch number is 8060012EV, specification: 5 ml:0.1 g. Preparation Method: Etoposide injection is a kind of transparent sticky liquid and it is diluted with a proper amount of physiological saline and gently shaken and prepared as a homogeneous solution, and the concentration is 1 mg/ml.
(§8) Dosage setting: the high dosage group of DPT is 8 mg/kg, the medium dosage group of DPT is 4 mg/kg and the low dosage group of DPT is 2 mg/kg. The dosage for the positive control group of Etoposide injection is 20 mg/kg.
(§9) Experimental animals: source, germline and strain: BALB/c nude mice are provided by the Institute of Experimental Animals, Chinese Academy of Medical Sciences. Age: 35-40 days; body weight: 18-24 g; gender: male.
(§10) Transplanted tumor: the transplanted tumor for human nonsmall-cell lung cancer H460 in nude mice, and it is established by inoculating the human nonsmall-cell lung cancer H460 cell line hypodermically in the armpit of nude mice. 2×10^6 cells are inoculated.
(§11) Human non-small cell lung cancer H460 cell line in exponential phase of growth is prepared as a cell suspension of 2×10^7/ml under sterile conditions, 0.1 ml thereof is inoculated hypodermically in the right armpit of nude mice. The diameters of the transplanted tumors in the nude mice are measured by a sliding caliper, and the animals are randomly divided into different groups when the tumors grow up to the amount of 100 to 300 mm^3. The antitumor efficacy of the test article is dynamically observed by measuring the diameter of the tumor. The diameters of the tumor are determined once for every two days. The administration volume is 0.4 ml/20 g. The mice are killed 21 days after administration, and the tumors are surgically isolated and weighed. The calculation formula for tumor volume (TV) is as follows: TV=½×a×b^2 Wherein a and b represents for the length and the width, respectively.
(§12) The relative tumor volume (RTV) is calculated according to the measured results, and the calculation formula is as follows: RTV=Vt/V0. Wherein V0 is the tumor size measured during grouping and drug administration (d0), Vt is the tumor size in every measurements. The evaluation parameter for antitumor activity is the relative tumor growth rate T/C (%) which is calculated according to the formula as follows:
(§13) [formula] TRTV: the treatment group RTV; CRTV: the negative control group: RTV.

[7] = tested on: Hela (human cervical cancer cell line); assay: in vitro growth inhibition of tumor cells, Hela; format: cell-based; conditions: hela, 48 hours
Description: as §1, §2

[8] = tested on: transplanted tumor S180
Description: (§3) Experimental groups: three dosage groups were set up for DPT, 10, 5 and 2.5 mg/kg; the blank control group: cyclophosphamide (CTX) group, Etoposide group 20 mg/kg.
(§4) Administration route: injection via tail vein, it is administered in a dosage of 0.4 ml/20 g body weight. Administration period: the drug is administrated 24 hours after the inoculation, once every two days for four times in total.
(§5) Experimental methods: 60 ICR mice with standard weight of from 18 to 22 g are inoculated with S-180 or Heps solid tumor according to the test method for transplanted tumors, hypodermic inoculation with 0.2 ml is carried out in the armpit in the anterior limb of every mouse. The body weight is determined 24 hours after the inoculation and they are randomly divided into six groups: the blank control group, the CTX group (20 mg/kg), the Etoposide group (20 mg/kg), the DPT group (10, 5 and 2.5 mg/Kg). The drug is administrated 24 hours after the inoculation once for every two days for 4 times, and tumor-bearing mice are killed on the next after drug withdrawal and their body weights are measured, and the separated tumor mess is weighed, and all of the data are subjected to statistical analyses (t-test).

[9] = tested on: transplanted tumor Heps
Description: as §3, §4, §5

[10] = tested on: human non-small cell lung cancer H460 xenograft tumor; conditions: for Tumor volume / RTV / T/C / Gross tumor volume: 20 mg/kg iv
Description: as §6, §7, §8, §9, §10, §11, §12, §13

[11] = tested on: BGC-823 (human gastric cancer cell line); assay: in vitro growth inhibition of tumor cells, BGC-823; format: cell-based; conditions: 48 hours
Description: as §1, §2

[12] = S180 mice, 20 mg/kg iv, once every two days, four times
[13] = Heps mice, 20 mg/kg iv, once every two days, four times
[14] = H460 nude mice, 20 mg/kg iv three times a week, 9 times, 21 days

COc1cc([C@@H]2c3cc4c(cc3[C@@H](O[C@@H]3O[C@@H]5CO[C@@H](C)O[C@H]5[C@H](O)[C@H]3O)[C@H]3COC(=O)[C@H]23)OCO4)cc(OC)c1O [Etoposide, reference compound]
Inhibition effects on in vitro growth ([1]; 5 × 10^−5M): 66.2% | Inhibition effects on in vitro growth ([1]; 10^−5M): 59.96% | Inhibition effects on in vitro growth ([1]; 10^−6M): 49.99% | Inhibition effects on in vitro growth ([1]; 10^−7M): 16.67% | Inhibition effects on in vitro growth ([1]; 10^−8M): 9.98% | Inhibition effects on in vitro growth ([2]; 5 × 10^−5M): 94.85% | Inhibition effects on in vitro growth ([2]; 10^−5M): 16.01% | Inhibition effects on in vitro growth ([2]; 10^−6M): 8.45% | Inhibition effects on in vitro growth ([2]; 10^−7M): 3.48% | Inhibition effects on in vitro growth ([2]; 10^−8M): 1.91% | Inhibition effects on in vitro growth ([3]; 5 × 10^−5M): 68.67% | Inhibition effects on in vitro growth ([3]; 10^−5M): 22.99% | Inhibition effects on in vitro growth ([3]; 10^−6M): 5.18% | Inhibition effects on in vitro growth ([3]; 10^−7M): 3.68% | Inhibition effects on in vitro growth ([3]; 10^−8M): 2.3% | Inhibition effects on in vitro growth ([4]; 5 × 10^−5M): 97.14% | Inhibition effects on in vitro growth ([4]; 10^−5M): 38.94% | Inhibition effects on in vitro growth ([4]; 10^−6M): 8.71% | Inhibition effects on in vitro growth ([4]; 10^−7M): 2.02% | Inhibition effects on in vitro growth ([4]; 10^−8M): 1.71% | Inhibition effects on in vitro growth ([5]; 5 × 10^−5M): 67.32% | Inhibition effects on in vitro growth ([5]; 10^−5M): 15.04% | Inhibition effects on in vitro growth ([5]; 10^−6M): 4.45% | Inhibition effects on in vitro growth ([5]; 10^−7M): 3.08% | Inhibition effects on in vitro growth ([5]; 10^−8M): 2.38% | Initial body weight [6]: 22.67 ± 1.37 g | toxicity [6]: obvious toxicity | Inhibition effects on in vitro growth ([7]; 5 × 10^−5M): 97.26% | Inhibition effects on in vitro growth ([7]; 10^−5M): 24.71% | Inhibition effects on in vitro growth ([7]; 10^−6M): 6.87% | Inhibition effects on in vitro growth ([7]; 10^−7M): 5.63% | Inhibition effects on in vitro growth ([7]; 10^−8M): 4.35% | Tumor weight [8, 12]: 1.05 ± 0.35 g | Tumor-inhibition rate [8, 12]: 43.03% | Body weight After administration ([8]; mouse, in vivo, iv, 20 mg/kg): 23.30 ± 1.83 g | Body weight Before administration ([8]; mouse, in vivo, iv, 20 mg/kg): 19.30 ± 1.06 g | Tumor inhibition rate [9, 13]: 59.31% | Tumor weight [9, 13]: 0.80 ± 0.37 g | Body weight After administration ([9]; mouse, in vivo, iv, 20 mg/kg): 22.40 ± 2.41 g | Body weight Before administration ([9]; mouse, in vivo, iv, 20 mg/kg): 21.10 ± 1.37 g | Tumor volume ([10]; 0 d): 275 ± 130 mm^3 | RTV ([10]; 2 d): 1.306 ± 0.356 | T/C ([10]; 2 d): 81.24% | Tumor volume ([10]; 2 d): 352 ± 169 mm^3 | RTV ([10]; 4 d): 2.012 ± 0.744 | T/C ([10]; 4 d): 77.07% | Tumor volume ([10]; 4 d): 534 ± 277 mm^3 | RTV ([10]; 6 d): 2.048 ± 0.441 | T/C ([10]; 6 d): 66.86% | Tumor volume ([10]; 6 d): 531 ± 186 mm^3 | RTV ([10]; 8 d): 2.054 ± 0.776 | T/C ([10]; 8 d): 46.77% | Tumor volume ([10]; 8 d): 539 ± 255 mm^3 | Gross tumor volume ([10]; 10 d): 482 ± 216 mm^3 | RTV ([10]; 10 d): 1.846 ± 0.688 | T/C ([10]; 10 d): 36.90% | Gross tumor volume ([10]; 12 d): 534 ± 254 mm^3 | RTV ([10]; 12 d): 2.189 ± 1.212 | T/C ([10]; 12 d): 29.47% | RTV ([10]; 14 d): 2.898 ± 1.741 | T/C ([10]; 14 d): 34.16% | Tumor volume ([10]; 14 d): 682 ± 311 mm^3 | RTV ([10]; 16 d): 3.115 ± 1.969 | T/C ([10]; 16 d): 31.23% | Tumor volume ([10]; 16 d): 730 ± 384 mm^3 | RTV ([10]; 18 d): 3.876 ± 2.645 | T/C ([10]; 18 d): 34.39% | Tumor volume ([10]; 18 d): 873 ± 407 mm^3 | RTV ([10]; 21 d): 3.706 ± 1.796 | T/C ([10]; 21 d): 32.18% | Tumor volume ([10]; 21 d): 872 ± 305 mm^3 | Tumor weight [10, 14]: 1.27 ± 0.61 g | Tumor-inhibition rate [10, 14]: 61.08% | Inhibition effects on in vitro growth ([11]; 5 × 10^−5M): 61.14% | Inhibition effects on in vitro growth ([11]; 10^−5M): 10.55% | Inhibition effects on in vitro growth ([11]; 10^−6M): 8.15% | Inhibition effects on in vitro growth ([11]; 10^−7M): 7.67% | Inhibition effects on in vitro growth ([11]; 10^−8M): 3.41%

O=P1(N(CCCl)CCCl)NCCCO1 (centres unmarked) [CTX, cyclophosphamide, reference compound]
Body weight Before administration ([8]; S180 mice, 20 mg/kg iv group): 19.80 ± 1.69 g | Body weight After administration [8, 12]: 23.00 ± 2.50 g | Tumor weight [8, 12]: 0.98 ± 0.22 g | Tumor-inhibition rate [8, 12]: 46.77% | Body weight Before administration ([9]; Heps mice, 20 mg/kg iv group): 21.30 ± 1.49 g | Body weight After administration [9, 13]: 22.50 ± 3.69 g | Tumor inhibition rate [9, 13]: 66.94% | Tumor weight [9, 13]: 0.65 ± 0.21 g
